Patent US20240268372A1, “Methods and Compositions for Extending Organ and Tissue Preservation” (The General Hospital Corporation, priority 2021, published 2024)

Test system: rat livers
Experiment: Partial freezing of rat livers with 12% glycerol with or without ice modulators, SNMP recovery
Text: Experimental design: FIG. 39 outlines the rat liver partial freezing protocol in eight consecutive steps: (1) liver procurement, (2) preconditioning during SNMP, (3) CPA preloading during hypothermic machine perfusion (HMP), (4) loading of final storage solution and ice modulators during HMP, (5) partial freezing of rat liver, (6) thawing of rat liver, (7) unloading of CPAs during HMP, and (8) functional recovery of frozen rat livers during SNMP.
Within this protocol, we first compared partially frozen livers at −10° C. (n=4 livers) and −15° C. (n=9 livers) with 12% glycerol. Upon finding minimal differences between these two groups, we combined them as a control and compared them to livers partially frozen with 0.5 mg/ml (0.05% w/v) of AFGP (n=4 livers) or 0.1% X-1000/0.2% Z-1000 (total, 0.3% w/v; n=4 livers) ice modulating agents added to the preservation solution. After freezing, liver viability on SNMP was compared between the 12% glycerol control group and the two ice modulated groups.
Partial freezing protocol: The rat liver perfusion system involved perfusion through the cannulated portal vein (PV) with regulation of pressure, flow, and temperature. Detailed set-up of the perfusion system has been previously described (see, e.g., ref. 34). The total rat hepatectomy protocol was approved by the Institutional Animal Care and Use Committee (IACUC) of Massachusetts General Hospital (Boston, MA). Livers were procured from male Lewis rats (250-300 g, age 10-12 weeks. Charles River Laboratories, Wilmington, MA) (FIG. 39, step 1). The bile duct was isolated and cannulated, and the rats were heparinized with 30U sodium heparin. PV splenic and gastric branches, as well as the hepatic artery were ligated prior to cannulation. The PV was subsequently cannulated with a 16-gauge catheter and immediately flushed with 40 ml of heparinized saline (1000U/ml at room temperature). The liver was then freed from all peritoneal attachments, flushed with an additional 20 ml of heparinized saline. After procurement, the liver was weighed, and machine perfusion was immediately initiated.
Preconditioning during SNMP was initiated at 21° C. with a flow rate of 5 ml/min (FIG. 39, step 2). […] The rat livers were perfused for 1 hour with 500 ml of preconditioning solution including Williams E, 200 U/l of insulin, 2% w/v PEG, 50 g/L BSA, 100 mM 3-O-methylglucose (3-OMG), 10,000 U/l of heparin, 24 mg/L of dexamethasone, 25 mg/ml of hydrocortisone, 40,000 μg/l of penicillin, and 40,000 U/l of streptomycin and sodium bicarbonate as needed to maintain a physiological pH (see Table 9 for composition of all solutions).
After 1 hour of preconditioning during SNMP, the temperature was decreased to 4° C. at a rate of ˜1° C./min. Flow rates were gradually adjusted as necessary to ensure a maximum perfusion pressure of 3-5 mmHg during HMP. The SNMP preconditioning solution was switched to 500 ml CPA preloading solution at 4° C. (including Williams E, 200 U/l of insulin, 2% PEG, 50 g/L BSA, 100 mM 3-OMG, 30 mM raffinose, 3% hydroxyethyl starch (HES), 6% glycerol, 4000 U/l of heparin, 24 mg/l of dexamethasone, 25 mg/ml of hydrocortisone, 40,000 μg/l of penicillin, 40,000 U/l of streptomycin, and sodium bicarbonate as needed to maintain a physiological pH) (FIG. 39, step 3; Table 9). HMP was continued for 1 hour to ensure complete equilibration of solution throughout the liver parenchyma. […]

[1] = after SNMP recovery, pooled 1 and 5 days

OCC(O)CO [GLY, glycerol]
mean perfusate lactate (12% glycerol only, pooled 1 and 5 days, at time zero): 1.17 ± 0.61 mmol/L
function of livers frozen at −10° C. vs −15° C. (perfusion metrics, weight gain, ATP, EC) (12% glycerol, pooled 1 and 5 days): not functionally different
H&E staining of liver parenchyma (after 1 and 5 day partial freezing): sinusoidal damage and compression, peri-portal endothelial destruction
TUNEL staining (after 1 and 5 days of frozen storage): remarkably less TUNEL staining
mean ATP [1]: 0.187 ± 0.075 µg/mL
mean energy charge (EC), (ATP+1/2ADP)/(ATP+ADP+AMP) [1]: 0.066±0.032
final mean weight gain (end of SNMP recovery vs weight after procurement, pooled 1 and 5 days): 26.9±15.3%
mean vascular resistance (pooled 1 and 5 days, at 0 hours): 0.528±0.39 mmHg/ml/min
mean perfusate potassium (pooled 1 and 5 days, at 1 hour): 6.5 ± 1.01 mmol/L
